This is an account of results in patent US6066662A, “Hydroxylamine derivatives and their use as metalloproteinase inhibiting agents” (Hoffmann-La Roche Inc., priority 1994, dated 2000).

Structures are written as SMILES.

For this assay, the target named is T1, collagenase (Homo sapiens, UniProt P03956).
T1 construct: endogenous in cells; host or cells: culture of human synovial fibroblasts (conditioned medium)
T1 sequence (P03956 100-469): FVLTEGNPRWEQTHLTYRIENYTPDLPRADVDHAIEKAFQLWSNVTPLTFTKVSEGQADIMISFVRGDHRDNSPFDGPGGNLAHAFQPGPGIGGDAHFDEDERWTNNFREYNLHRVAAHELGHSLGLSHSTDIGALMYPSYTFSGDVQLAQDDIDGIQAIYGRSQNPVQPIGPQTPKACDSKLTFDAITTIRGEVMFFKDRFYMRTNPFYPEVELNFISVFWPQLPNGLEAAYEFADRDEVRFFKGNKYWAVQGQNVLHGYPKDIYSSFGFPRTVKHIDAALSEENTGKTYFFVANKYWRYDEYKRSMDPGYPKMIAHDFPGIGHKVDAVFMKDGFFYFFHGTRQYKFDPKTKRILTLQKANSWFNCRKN
Kind of assay: in vitro collagenase inhibiting activity (Test A). It is filed as biochemical. The note with it: collagenase from culture of human synovial fibroblasts, trypsin-activated; substrate 14C-acetylated collagen type I from rat tail tendons; microtitre plate assay. The procedure:
USA (1976), 73 945, following activation of the pro-collagenase in the conditioned medium by treatment with trypsin. Collagenase activity was measured using ^14 C-acetylated collagen type I from rat tail tendons as the substrate and employing the microtitre plate assay method of Johnson-Wint, B, Anal. Biochem. (1980), 104, 175. The IC50 is that concentration of a test compound in the enzyme digestion which reduces substrate cleavage and solubilization to 50% of that achieved by the enzyme alone.
Broadly, the IC50 is the midpoint of a concentration-inhibition curve. Regarding `CNC(=O)[C@@H](NC(=O)C(CC(=O)NO)CC1CCC1)C(C)(C)C` (single isomer, unassigned) [Example 1, N2-[3-cyclobutyl-2(R or S)-[(hydroxycarbamoyl)-methyl]propionyl]-N1,3-dimethyl-L-valinamide], the IC50 came to 2 nM.
Molecule `CNC(=O)[C@@H](NC(=O)[C@H](CC1CC1)C(CN1C(=O)N(C)C(C)(C)C1=O)C(=O)NO)C(C)(C)C` (single isomer, unassigned) [Example 4, N2-[3-cyclopropyl-2(R)-[1(R or S)-(hydroxycarbamoyl)-2-(3,4,4-trimethyl-2,5-dioxo-1-imidazolidinyl)ethyl]propionyl]-N1,3-dimethyl-L-valinamide] returned an IC50 of 1 nM.
`CNC(=O)[C@@H](NC(=O)[C@H](CC1CCC1)C(CN1C(=O)N(C)C(C)(C)C1=O)C(=O)NO)C(C)(C)C` (single isomer, unassigned) [Example 5, N2-[3-cyclobutyl-2(R)-[1(R or S)-(hydroxycarbamoyl)-2-(3,4,4-trimethyl-2,5-dioxo-1-imidazolidinyl)ethyl]propionyl]-N1,3-dimethyl-L-valinamide] came in with an IC50 of 1 nM.
On to `CNC(=O)[C@@H](NC(=O)C(CC(=O)NO)CC1CCCC1)C(C)(C)C` (single isomer, unassigned) [Example 3, N2-[3-cyclopentyl-2(R or S)-[(hydroxycarbamoyl)methyl]propionyl]-N1-3-dimethyl-L-valinamide], for which the IC50 turned out to be 5 nM.
As to `CNC(=O)[C@@H](NC(=O)C(CC(=O)NO)CC1CC1)C(C)(C)C` (single isomer, unassigned) [Example 2, N2-[3-cyclopropyl-2(R or S)-[(hydroxycarbamoyl)-methyl]propionyl]-N1,3-dimethyl-L-valinamide], the IC50 was 7 nM.
